# Assay results as given in patent US10799540B2, “Faecalibacterium longum and application thereof” (BGI SHENZHEN, priority 2016, dated 2020).
# Marks after values point to notes of the source that are not given here.
# Experiments:
# T2D model mice [1] = test: Body weight change of T2D model mice treated by gavage for 2 months; type: in vivo, C57bL/6 mice; settings: intragastric treatment
# T2D model mice [2] = test: Serum blood lipids in T2D model mice at end of experiment; settings: after 2 months of treatment
# T2D model mice [3] = test: Fasting blood glucose (FBG) in T2D model mice; type: in vivo, C57bL/6 mice
# T2D model mice [4] = test: Glucose tolerance (OGTT) in T2D model mice; type: in vivo, C57bL/6 mice; settings: before sacrifice
smiles,measurement,setting,value
"CN(C)C(=N)N=C(N)N [Metformin, metformin]",body weight,T2D model mice [1]; 1 week,21.54 g
same,body weight,T2D model mice [1]; 3 weeks,23.42 g
same,body weight,T2D model mice [1]; 5 weeks,25.23 g
same,body weight,T2D model mice [1]; 7 weeks,26.6 g
same,body weight,T2D model mice [1]; 9 weeks,27.49* g
same,HDLC (high-density lipoprotein),T2D model mice [2],3.023* mmol/L
same,LDLC (low density lipoprotein),T2D model mice [2],1.533* mmol/L
same,TC (total cholesterol),T2D model mice [2],5.923 mmol/L
same,TG (triglyceride),T2D model mice [2],1.565 mmol/L
same,fasting blood glucose,T2D model mice [3]; week five,14.6 mmol/L
same,fasting blood glucose,T2D model mice [3]; week nine,9.8** mmol/L
same,fasting blood glucose,T2D model mice [3]; week one,16.7 mmol/L
same,fasting blood glucose,T2D model mice [3]; week seven,12.1* mmol/L
same,fasting blood glucose,T2D model mice [3]; week three,15.8 mmol/L
same,blood glucose in glucose tolerance test (OGTT),T2D model mice [4]; 0 min after glucose gavage,9.2 mmol/L
same,blood glucose in glucose tolerance test (OGTT),T2D model mice [4]; 30 min after glucose gavage,19.5 mmol/L
same,blood glucose in glucose tolerance test (OGTT),T2D model mice [4]; 60 min after glucose gavage,16.1 mmol/L
same,blood glucose in glucose tolerance test (OGTT),T2D model mice [4]; 90 min after glucose gavage,10.9* mmol/L
same,blood glucose in glucose tolerance test (OGTT),T2D model mice [4]; 120 min after glucose gavage,10.1* mmol/L
same,blood glucose in glucose tolerance test (OGTT),"T2D model mice [4]; 120 min after glucose gavage, listed as metformin",9.8 mmol/L
